The text below walks through data of paper PMC10508484, “Development and application of a PBPK modeling strategy to support antimalarial drug development” (CPT: Pharmacometrics & Systems Pharmacology, 2023).

“And” between values parts separate entries of the source, which are not always exact repeats. Equal values may be shown once. Read-outs that look alike come from different tables or passages of the source.

A short description of series [1]: PBPK absorption inputs (fa, ka, tlag, Qgut, Fg). Details: species or system human. The note with it: derived from ascending dose studies, McCarthy et al., 2017. An excerpt: Initial models were built based on available physicochemical and in vitro data to give a ‘bottom-up’ prediction. Areas of uncertainty were highlighted, and the potential impact of uncertainty associated with such parameters was investigated using sensitivity analysis. Available clinical PK data were then used to evaluate and, if required, refine the initial ‘bottom-up’ model. Care was taken to split data into training and test sets wherever possible. The model verification strategy differed across compounds based on availability of different types of clinical data. […] Clinical studies used for drug model development and verification are reported in Table S2 (PK) and Table S3 (DDIs).

Series [2] deals with T1, CYP2C8 (Homo sapiens, UniProt P10632).
T1 sequence (P10632 1-490): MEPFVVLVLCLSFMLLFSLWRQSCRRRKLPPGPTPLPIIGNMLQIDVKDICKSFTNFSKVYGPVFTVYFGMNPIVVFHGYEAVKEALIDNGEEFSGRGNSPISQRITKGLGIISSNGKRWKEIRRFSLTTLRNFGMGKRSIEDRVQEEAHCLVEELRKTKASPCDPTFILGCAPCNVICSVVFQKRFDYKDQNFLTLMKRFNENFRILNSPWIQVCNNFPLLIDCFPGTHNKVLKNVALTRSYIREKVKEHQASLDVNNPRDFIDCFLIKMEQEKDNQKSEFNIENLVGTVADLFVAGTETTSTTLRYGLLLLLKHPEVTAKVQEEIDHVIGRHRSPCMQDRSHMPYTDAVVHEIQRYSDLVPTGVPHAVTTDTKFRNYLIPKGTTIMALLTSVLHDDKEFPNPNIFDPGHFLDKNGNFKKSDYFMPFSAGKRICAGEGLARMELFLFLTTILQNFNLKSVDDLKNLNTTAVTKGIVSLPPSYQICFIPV
In words: Metabolism by CYP2C8 (CLint, fm). An excerpt: (§1) In nearly all cases the fraction of systemic elimination metabolised by a given enzyme (fm) determined in vitro was unavailable in the literature.

In a further series the target is CYP2C19 (Homo sapiens, UniProt P33261). In words: Metabolism by CYP2C19 (CLint, fm). The format is in vitro ADME.
Source text: as §1

The conditions of series [3]: PBPK input; ref Charman et al., 2020 1; cited from earlier work.
For series [4] the following is noted: cited from earlier work.
A further series has as its system Caco-2 cells. The note with it: calibrated against propranolol; plasma as medium for atovaquone and piperaquine; ref Charman et al., 2020 1; cited from earlier work.
The target of series [5] is T1, CYP2C8. The experiment in a line: biochemical.
A short description of series [6]: Blood to plasma ratio (B:P). The following applies: PBPK input; unpublished (in-house) data.
Series [7] can be described thus: Fraction unbound in human liver microsomes (fumic). The following applies: method of Austin et al., 2002.
Series [8] in a line: Fraction unbound in plasma (fu), main binding protein. The following applies: PBPK input; unpublished (in-house) data.
Series [9] concerns the target T1, CYP2C8.
A short description of series [10]: In vitro flags for victim and perpetrator properties conferring DDI liability. The format is in vitro ADME, human. The note with it: in vitro flag, mainly based on in vitro determinations.
Another series deals with CYP3A4 (Homo sapiens, UniProt P08684).
Source text: as §1

The target of another series is T2, UGT1A1 (Homo sapiens, UniProt P22309).
T2 sequence (P22309 26-533): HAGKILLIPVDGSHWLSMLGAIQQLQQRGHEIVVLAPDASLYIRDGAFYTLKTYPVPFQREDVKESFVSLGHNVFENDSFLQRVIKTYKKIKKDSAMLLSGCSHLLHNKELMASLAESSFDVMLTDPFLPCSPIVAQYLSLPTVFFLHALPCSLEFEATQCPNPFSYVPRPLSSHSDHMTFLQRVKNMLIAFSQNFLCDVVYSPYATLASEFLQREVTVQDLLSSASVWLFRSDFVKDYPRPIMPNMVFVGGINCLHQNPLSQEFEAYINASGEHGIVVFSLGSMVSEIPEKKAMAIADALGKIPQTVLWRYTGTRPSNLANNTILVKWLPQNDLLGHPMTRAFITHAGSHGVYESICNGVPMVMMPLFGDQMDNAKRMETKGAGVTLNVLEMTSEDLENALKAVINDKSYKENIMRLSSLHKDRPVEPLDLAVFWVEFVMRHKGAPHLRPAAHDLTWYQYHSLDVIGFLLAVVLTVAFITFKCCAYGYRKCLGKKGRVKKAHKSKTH
In words: Metabolism by UGT1A1. The format is in vitro ADME.
Source text: as §1

The next series is described as follows: in vitro. The following applies: human, Caco-2.
The conditions of series [11]: clinically observed oral (in vivo) clearance; pyronaridine: blood; ref amodiaquine Winstanley et al., 1987 9; DEAQ Akande et al., 2015 8, Scarsi et al., 2014 35, Tarning et al., 2012 36, Orrell et al., 2008 37; DHA Na-Bangchang et al., 2004 42; lumefantrine Lefevre et al., 2002 52, Hoglund et al., 2015 53; mefloquine Charles et al., 2007 56; proguanil Jeppesen et al., 1997 34; pyronaridine Jittama; cited from earlier work.

Series [12] in a line: In vivo clearance (CL IV, CL PO, CL renal, fe). The note with it: rat, after IV dose.

Chain of CYP2C19 (P33261 whole entry): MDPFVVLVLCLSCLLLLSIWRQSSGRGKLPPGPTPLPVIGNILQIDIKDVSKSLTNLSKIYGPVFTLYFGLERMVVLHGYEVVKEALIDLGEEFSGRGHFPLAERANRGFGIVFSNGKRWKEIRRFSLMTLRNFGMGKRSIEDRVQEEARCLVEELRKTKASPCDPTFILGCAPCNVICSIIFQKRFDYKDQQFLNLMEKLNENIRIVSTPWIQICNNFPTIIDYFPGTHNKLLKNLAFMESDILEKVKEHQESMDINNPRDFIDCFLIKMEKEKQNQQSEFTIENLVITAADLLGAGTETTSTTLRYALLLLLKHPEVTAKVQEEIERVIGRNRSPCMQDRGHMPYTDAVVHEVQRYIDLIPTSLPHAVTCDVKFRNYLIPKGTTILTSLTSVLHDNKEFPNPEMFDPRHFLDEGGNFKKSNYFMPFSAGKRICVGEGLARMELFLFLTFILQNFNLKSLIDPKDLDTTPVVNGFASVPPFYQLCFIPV
Chain of CYP3A4 (P08684 whole entry): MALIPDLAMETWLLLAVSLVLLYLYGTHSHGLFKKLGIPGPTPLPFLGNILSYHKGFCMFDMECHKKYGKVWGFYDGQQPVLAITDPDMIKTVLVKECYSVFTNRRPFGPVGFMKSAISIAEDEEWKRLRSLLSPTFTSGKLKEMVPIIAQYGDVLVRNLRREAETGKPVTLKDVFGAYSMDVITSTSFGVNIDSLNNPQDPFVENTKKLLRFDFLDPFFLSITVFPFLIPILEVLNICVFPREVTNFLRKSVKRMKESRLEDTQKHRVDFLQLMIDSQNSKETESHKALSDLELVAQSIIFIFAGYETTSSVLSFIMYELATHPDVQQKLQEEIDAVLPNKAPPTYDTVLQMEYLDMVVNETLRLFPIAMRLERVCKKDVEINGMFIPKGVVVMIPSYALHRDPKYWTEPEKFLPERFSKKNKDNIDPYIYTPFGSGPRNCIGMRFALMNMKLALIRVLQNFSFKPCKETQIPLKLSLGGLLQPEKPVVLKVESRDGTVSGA

With `Cc1cc(Nc2ccc(S(F)(F)(F)(F)F)cc2)n2nc(C(C)(F)F)nc2n1` [DSM265], the fa in [1] (doses 400 mg and above) came out at 0.7; in series [1] (doses 25 - 250 mg), 1. At CYP2C8 [2] (Unpublished MMV in house data), the “CLint CYP2C8” value was 2.384 µL/min/pmol. On CYP2C8 [2] (fraction metabolised used in the PBPK model), the fmCYP2C8 is 70% and ~ 70%. Moreover, at CYP2C19 (Unpublished MMV in house data), the “CLint CYP2C19” value amounted to 1.751 µL/min/pmol. Besides, the fmCYP2C19 at CYP2C19 (fraction metabolised used in the PBPK model (proguanil: total, all routes)) is 30% and ~ 30%. Besides, the “Log P” value in series [3] is listed as 4.03. Moreover, the “AUC Obs” value was 1210 µg·h/mL in series [4] (DSM265 400 mg SD, 0-inf, ref McCarthy et al., 2017 46); 2140 µg·h/mL in series [4] (DSM265 600 mg SD, 0-inf, ref McCarthy et al., 2017 46); 2220 µg·h/mL in [4] (DSM265 800 mg SD, 0-inf, ref McCarthy et al., 2017 46); 4720 µg·h/mL in [4] (DSM265 1200 mg SD, 0-inf, ref McCarthy et al., 2017 46). Further, the “Cmax Obs” value is recorded as 11500 ng/mL in series [4] (DSM265 400 mg SD, ref McCarthy et al., 2017 46); 15500 ng/mL in [4] (DSM265 600 mg SD, ref McCarthy et al., 2017 46); 19100 ng/mL in series [4] (DSM265 800 mg SD, ref McCarthy et al., 2017 46); 34800 ng/mL in [4] (DSM265 1200 mg SD, ref McCarthy et al., 2017 46). Moreover, in the series with Caco-2 cells, the “Caco-2 (Papp A-B)” value is listed as 61 10-6 cm/s. The Ki on CYP2C8 [5] is 3.1 µM and 1.18 µM. In [6], the “B:P” value came to 0.70. For the same compound, the fumic is reported as 0.61 in [7] (extrapolated from value measured at 0.4 mg/mL to 0.1 mg/mL) and 0.44 in series [7] (for CYP2C8 Ki, extrapolated from 0.4mg/mL to 0.2 mg/mL). This compound had a fu in series [8] of 0.001.
The compound `CC(F)(F)c1nc2nc(CO)cc(Nc3ccc(S(F)(F)(F)(F)F)cc3)n2n1` [DSM450] returned a Ki at CYP2C8 [9] of 4.46 µM. Besides, the “AUC Obs” value in series [4] (in vivo, 400 mg) is 271 µg·h/mL; in series [4] (in vivo, 600 mg), 477 µg·h/mL; in series [4] (in vivo, 800 mg), 454 µg·h/mL; in series [4] (in vivo, 1200 mg), 1170 µg·h/mL. In addition, the “Cmax Obs” value is recorded as 1070 ng/mL in series [4] (in vivo, 400 mg); 1380 ng/mL in series [4] (in vivo, 600 mg); 1920 ng/mL in series [4] (in vivo, 800 mg); 3070 ng/mL in [4] (in vivo, 1200 mg).
For `CS(=O)(=O)c1ccc(-c2cnc(N)c(-c3ccc(C(F)(F)F)nc3)c2)cc1` [MMV048], the “Risk as a perpetrator” value in series [10] is on record as “No risk has been identified as a perpetrator”. The fmCYP3A4 at CYP3A4 is 10%. Moreover, the “CLint CYP3A4” value on CYP3A4 (microsomes) is reported as 0.13 µL/min/pmol. Also, the “CLint UGT1A1” value at UGT1A1 (Derived from CL PO using retrograde calculations) is given as 1.13 µL/min/pmol. Besides, at UGT1A1 (allocation of clearance, based on in vitro data), the “fm UGT1A1” value is reported as 90%. At UGT1A1 (fraction metabolized), the “fm by UGT1A1” value stood at 0.9. In “in vitro”, this compound registered a Papp A→B of 44 ×10⁻⁶ cm/s. Besides, the “AUC Obs” value was 30.32 µg·h/mL in series [4] (40 mg SD, 0-inf, ref McCarthy et al., 2020 47); 82.68 µg·h/mL in series [4] (80 mg SD, 0-inf, ref McCarthy et al., 2020 47); 137.8 µg·h/mL in series [4] (120 mg SD, 0-inf, ref McCarthy et al., 2020 47). For the same compound, the “Cmax Obs” value in series [4] (40 mg SD, ref McCarthy et al., 2020 47) is 272.7 ng/mL; in series [4] (80 mg SD, ref McCarthy et al., 2020 47), 561.0 ng/mL; in [4] (120 mg SD, ref McCarthy et al., 2020 47), 1094.0 ng/mL. The “CL PO” value in series [11] is on record as 0.82 L/h. Moreover, the “B:P” value in series [6] stood at 0.9. The “dose recovered in urine” value in [12] is listed as 0.2 % of dose. The fu in [8] is recorded as 0.145.
